{"source": "paper PMC8625740", "about": "“Triterpenoid Saponins from the Cultivar “Green Elf” of Pittosporum tenuifolium” (Molecules, 2021)", "target": "T1, hTAS1R2 (TAS1R2/TAS1R3 sweet taste receptor) (Homo sapiens, UniProt Q8TE23)", "T1 construct": "with hTAS1R3 (TAS1R3)", "T1 sequence (Q8TE23 20-839)": "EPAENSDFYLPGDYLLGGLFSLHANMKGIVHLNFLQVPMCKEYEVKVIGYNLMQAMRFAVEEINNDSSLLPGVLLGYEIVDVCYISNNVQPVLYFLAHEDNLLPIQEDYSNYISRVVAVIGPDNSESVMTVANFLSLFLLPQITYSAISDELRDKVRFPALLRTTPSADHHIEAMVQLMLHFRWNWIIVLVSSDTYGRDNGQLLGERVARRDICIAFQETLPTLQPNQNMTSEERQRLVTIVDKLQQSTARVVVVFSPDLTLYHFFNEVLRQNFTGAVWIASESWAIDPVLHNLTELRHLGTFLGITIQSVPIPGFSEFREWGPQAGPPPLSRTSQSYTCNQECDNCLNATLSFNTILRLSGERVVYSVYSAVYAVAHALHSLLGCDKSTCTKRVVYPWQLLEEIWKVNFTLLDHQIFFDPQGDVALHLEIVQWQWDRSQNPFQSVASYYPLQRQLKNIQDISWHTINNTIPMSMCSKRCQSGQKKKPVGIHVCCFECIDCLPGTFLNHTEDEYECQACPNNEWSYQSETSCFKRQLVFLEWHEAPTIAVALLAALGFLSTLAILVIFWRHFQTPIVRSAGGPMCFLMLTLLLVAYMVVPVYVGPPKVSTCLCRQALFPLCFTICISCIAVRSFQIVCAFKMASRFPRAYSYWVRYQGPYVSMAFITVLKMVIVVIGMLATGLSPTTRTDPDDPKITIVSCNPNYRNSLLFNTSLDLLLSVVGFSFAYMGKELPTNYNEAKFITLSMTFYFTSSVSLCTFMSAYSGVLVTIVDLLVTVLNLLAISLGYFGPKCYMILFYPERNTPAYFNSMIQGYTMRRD", "T1 sequence (Q7RTX0 21-852 partner)": "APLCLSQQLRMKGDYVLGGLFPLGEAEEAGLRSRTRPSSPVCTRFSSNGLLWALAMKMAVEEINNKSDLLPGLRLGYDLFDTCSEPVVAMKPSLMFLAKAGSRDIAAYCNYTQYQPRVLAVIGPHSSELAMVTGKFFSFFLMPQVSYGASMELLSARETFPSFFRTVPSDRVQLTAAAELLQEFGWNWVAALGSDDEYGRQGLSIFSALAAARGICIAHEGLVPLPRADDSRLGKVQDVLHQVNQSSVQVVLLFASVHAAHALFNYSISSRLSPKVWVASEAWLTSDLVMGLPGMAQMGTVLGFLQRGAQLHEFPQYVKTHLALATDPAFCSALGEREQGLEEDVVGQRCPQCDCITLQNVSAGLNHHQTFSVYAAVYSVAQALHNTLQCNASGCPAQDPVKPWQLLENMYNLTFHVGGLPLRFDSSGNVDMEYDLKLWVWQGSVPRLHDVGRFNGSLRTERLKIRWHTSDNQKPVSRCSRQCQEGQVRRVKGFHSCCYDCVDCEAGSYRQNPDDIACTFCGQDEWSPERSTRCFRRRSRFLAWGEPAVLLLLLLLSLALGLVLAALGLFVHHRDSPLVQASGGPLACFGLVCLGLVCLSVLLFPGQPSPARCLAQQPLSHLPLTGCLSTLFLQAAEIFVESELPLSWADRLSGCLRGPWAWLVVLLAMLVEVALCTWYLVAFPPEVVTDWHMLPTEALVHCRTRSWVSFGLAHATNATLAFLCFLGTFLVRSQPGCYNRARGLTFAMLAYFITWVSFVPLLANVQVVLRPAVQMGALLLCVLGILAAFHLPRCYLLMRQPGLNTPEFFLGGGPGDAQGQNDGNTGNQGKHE", "experiment": "calcium mobilization (GCaMP5G, FLIPR) in HEK293T-Gα[…]gust44 cells transfected with hTAS1R2 and hTAS1R3, mock-subtracted", "format": "cell-based"}
{"smiles": "OC[C@H]1O[C@H](O[C@]2(CCl)O[C@H](CCl)[C@@H](O)[C@@H]2O)[C@H](O)[C@@H](O)[C@H]1Cl", "note": "[sucralose]", "values": [{"measurement": "EC50", "value": "52 ± 7", "unit": "µM"}]}
